Measurements published in patent US20230014137A1, “COMPOUND HAVING LYSOPHOSPHATIDIC ACID RECEPTOR AGONIST ACTIVITY AND PHARMACEUTICAL USE THEREOF” (ONO PHARMACEUTICAL CO., LTD., priority 2019, published 2023).

These compounds were tested against T1, human LPA3 receptor (Homo sapiens, UniProt Q9UBY5) (assay: LPA3 agonist activity measurement (Method A): intracellular Ca2+ in RH7777 cells stably expressing human LPA3 receptor). Settings: RH7777 cells expressing human LPA3, Ca2+ fluorescence.
T1 construct: expressed in transfected cells; host or cells: CHO cells (Chinese hamster ovary) with the LPA1 receptor knocked down
T1 sequence (Q9UBY5 1-353): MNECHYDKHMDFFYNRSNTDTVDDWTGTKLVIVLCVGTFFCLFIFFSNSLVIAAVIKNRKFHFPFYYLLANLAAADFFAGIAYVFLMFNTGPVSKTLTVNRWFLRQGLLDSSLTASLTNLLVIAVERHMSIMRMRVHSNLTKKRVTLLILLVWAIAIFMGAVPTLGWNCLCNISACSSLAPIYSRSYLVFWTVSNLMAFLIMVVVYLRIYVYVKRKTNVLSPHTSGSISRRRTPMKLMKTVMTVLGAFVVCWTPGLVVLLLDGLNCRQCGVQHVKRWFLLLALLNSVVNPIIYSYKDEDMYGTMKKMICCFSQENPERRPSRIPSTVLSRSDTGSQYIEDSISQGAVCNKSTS
Assay type: cell-based
Description: (Method A) Using RH7777 cells derived from rat hepatocellular carcinoma as a host, each cell line (Multispan, Inc., Cat No. C1048-6, C1050-6, and C1053-6) stably expressing a human LPA3 receptor was subjected to an experiment. The cells cultured until reaching subconfluence were detached, and suspended in a medium (DMEM containing 10% FBS, 1% penicillin/streptomycin, 30 μg/mL puromycin) so as to be 4×10^5 cells/mL. The cells were seeded in a 96 well optical bottom plate (Asahi Techno Glass, MT4940-010) at 100 μL/well, and cultured under conditions of 5% CO2 and 37° C. for 1 day.
On the day of measurement, the medium was removed, and a medium containing 0.2% FBS was added at 100 μL/well, and cultured for 4 to 6 hours. Thereafter, the medium was removed, and an assay buffer (Hank's Balanced Salt Solution containing 0.02 mol/L HEPES, 2.5 mmol/L probenecid, 0.1% BSA, 5 μmol/L Fluo-4, Quenching Buffer, Pluronic F-127) was added at 100 μL/well, and the cells were incubated with 5% CO2 at 37° C. for about 1 hour. The plate was set in a fluorescent drug screening system (Hamamatsu Photonics K.K.), and after 30 seconds from the start of measurement, 25 μL of a cell-added solution containing only a test substance or dimethyl sulfoxide (hereinafter, it is abbreviated as DMSO.) was added thereto. After 3 minutes, 25 μL of a ligand was further added thereto, and then measurement was performed for 4 minutes. A fluorescence wavelength of 540 nm at an excitation wavelength of 480 nm was measured, and intracellular Ca^2+ concentration was indicated by fluorescence intensity change.
(§1) Agonist action of the test substance was calculated as a ratio increase degree after addition of the test substance when a ratio increase value indicated by cells to which a cell-added solution containing only DMSO was added at the time of ligand addition was set to 100%. Further, EC50 value was calculated as a 50% action concentration using Microsoft Excel, from an activity (%) at concentrations before and after agonist activity exceeds 50%.

| SMILES | EC50 |
| --- | --- |
| O=C(O)c1c(CNC2CCC2)c2ccccc2n1CC1CC1(F)F (centres unmarked) [Example 1(3), 3-[(Cyclobutylamino)methyl]-1-[(2,2-difluorocyclopropyl)methyl]-1H-indole-2-carboxylic acid] | 500 nM |
| CCn1c(C(=O)O)c(CNC2CCC2)c2ccccc21 [Example 1(4), 3-[(Cyclobutylamino)methyl]-1-ethyl-1H-indole-2-carboxylic acid] | 600 nM |
| Cc1ccc(Cn2c(C(=O)O)c(CNC3CC3)c3ccccc32)cc1 [Example 2(18), 3-[(Cyclopropylamino)methyl]-1-(4-methylbenzyl)-1H-indole-2-carboxylic acid] | 1000 nM |
| Cc1ccc(Cn2c(Br)c(C)c(CNC3CCC3)c2C(=O)O)cc1 [Example 2(34), 5-Bromo-3-[(cyclobutylamino)methyl]-4-methyl-1-(4-methylbenzyl)-1H-pyrrole-2-carboxylic acid] | 40 nM |
| Cc1ccc(Cn2c(C(=O)O)c(CNC3CCC3)c3ccccc32)cc1 [Example 2, 3-[(Cyclobutylamino)methyl]-1-(4-methylbenzyl)-1H-indole-2-carboxylic acid] | 60 nM |
| Cc1ccc(Cn2c(C(=O)O)c(C(C)NC3CCC3)c3ccccc32)cc1 (centres unmarked) [Example 5, 3-[1-(Cyclobutylamino)ethyl]-1-(4-methylbenzyl)-1H-indole-2-carboxylic acid] | 100 nM |
| Cc1ccc(Cn2c(C)c(-c3cccc(F)c3)c(CNC3CCC3)c2C(=O)O)cc1 [Example 6(2), 3-[(Cyclobutylamino)methyl]-4-(3-fluorophenyl)-5-methyl-1-(4-methylbenzyl)-1H-pyrrole-2-carboxylic acid] | 900 nM |
| C=Cc1c(CNC2CCC2)c(C(=O)O)n(Cc2ccc(C)cc2)c1C [Example 6(7), 3-[(Cyclobutylamino)methyl]-5-methyl-1-(4-methylbenzyl)-4-vinyl-1H-pyrrole-2-carboxylic acid] | 1000 nM |
| Cc1ccc(Cn2c3c(c(CNC4CCC4)c2C(=O)O)CCCC3)cc1 [Example 7, 3-[(Cyclobutylamino)methyl]-1-(4-methylbenzyl)-4,5,6,7-tetrahydro-1H-indole-2-carboxylic acid] | 100 nM |

The compounds below were run against T1, human LPA3 receptor (assay: LPA3 agonist activity measurement (Method B): intracellular Ca2+ in LPA1-knockdown CHO cells stably expressing human LPA3 receptor). Settings: LPA1-knockdown CHO cells expressing human LPA3, Ca2+ fluorescence.
Assay type: cell-based
Text: (Method B) A cell line stably expressing a human LPA3 receptor using a cell obtained by knocking down an LPA1 receptor of CHO cells of Chinese hamster ovary as a host was subjected to an experiment. The cryopreserved cells were thawed and suspended in loading buffer (Hank's Balanced Salt Solution containing 0.02 mol/L HEPES, 2.5 mmol/L probenecid, 0.1% BSA, 5 μmol/L Fluo-4, Quenching Buffer, Pluronic F-127) so as to be 1×10^5 cells/mL. The plate was allowed to stand under conditions of 5% CO2 and 37° C. for 1 hour, then the buffer was replaced with an assay buffer (Hank's Balanced Salt Solution containing 0.02 mol/L HEPES, 2.5 mmol/L probenecid, 0.1% BSA), and the cells were seeded in a 384 well optical bottom plate (384 Well microplate, low volume, Corning, 3540) at 10 μL/well.
A plate was set in a fluorescent drug screening system (Hamamatsu Photonics K.K.), and after 15 seconds from the start of the measurement, 10 μL of a positive control, the test substance or the cell-added solution containing only DMSO was added thereto, and the measurement was performed for 1 minute. A fluorescence wavelength of 540 nm at an excitation wavelength of 480 nm was measured, and intracellular […] concentration was indicated by fluorescence intensity change.
as §1, with “the positive control or the” for “cells to which a”, “containing” for “containing only DMSO”, “added” for “added at the time of ligand addition”

| SMILES | EC50 |
| --- | --- |
| O=C(O)c1c(CNC2CCC2)c2ccccc2n1CC1CC1(F)F (centres unmarked) [Example 1(3), 3-[(Cyclobutylamino)methyl]-1-[(2,2-difluorocyclopropyl)methyl]-1H-indole-2-carboxylic acid] | 200 nM |
| CCn1c(C(=O)O)c(CNC2CCC2)c2ccccc21 [Example 1(4), 3-[(Cyclobutylamino)methyl]-1-ethyl-1H-indole-2-carboxylic acid] | 600 nM |
| O=C(O)c1c(CNC2CCC2)c2ccccc2n1Cc1ccccc1Cl [Example 2(6), 1-(2-Chlorobenzyl)-3-[(cyclobutylamino)methyl]-1H-indole-2-carboxylic acid] | 50 nM |
| O=C(O)c1c(CNC2CCC2)c2ccccc2n1Cc1cccc(C2CC2)c1 [Example 2(41), 3-[(Cyclobutylamino)methyl]-1-(3-cyclopropylbenzyl)-1H-indole-2-carboxylic acid] | 40 nM |
| Cc1ccc(Cn2c(C(=O)O)c(CNC3CCC3C)c3ccccc32)cc1 (centres unmarked) [Example 2(46)] | 100 nM |
| Cc1ccc(Cn2c(C(=O)O)c(CNC3CCC3)c3cccnc32)cc1 [Example 2(49), 3-[(Cyclobutylamino)methyl]-1-(4-methylbenzyl)-1H-pyrrolo[2,3-b]pyridine-2-carboxylic acid] | 100 nM |
| O=C(O)c1c(CNC2CCC2)c2ccccc2n1Cc1ccccc1OC(F)F [Example 2(53), 3-[(Cyclobutylamino)methyl]-1-[2-(difluoromethoxy)benzyl]-1H-indole-2-carboxylic acid] | 100 nM |
| O=C(O)c1c(CNC2CCCC2)c2ccccc2n1Cc1ccccc1Cl [Example 2(70), 1-(2-Chlorobenzyl)-3-[(cyclopentylamino)methyl]-1H-indole-2-carboxylic acid] | 200 nM |
| Cc1ccc(Cn2c(C(=O)O)c(CNC3CSC3)c3ccccc32)cc1 [Example 2(71), 1-(4-Methylbenzyl)-3-[(3-thiethanylamino)methyl]-1H-indole-2-carboxylic acid] | 60 nM |
| O=C(O)c1c(CNC2CC2)c2ccccc2n1Cc1ccccc1Cl [Example 2(72), 1-(2-Chlorobenzyl)-3-[(cyclopropylamino)methyl]-1H-indole-2-carboxylic acid] | 100 nM |
| O=C(O)c1c(CNC2CCC2)c2ccccc2n1Cc1cccs1 [Example 2(74), 3-[(Cyclobutylamino)methyl]-1-(2-thienylmethyl)-1H-indole-2-carboxylic acid] | 30 nM |
| CSc1ccccc1Cn1c(C(=O)O)c(CNC2CCC2)c2ccccc21 [Example 2(75), 3-[(Cyclobutylamino)methyl]-1-[2-(methylthio)benzyl]-1H-indole-2-carboxylic acid] | 60 nM |
| Cc1ccc(Cn2c(C(=O)O)c(CNC3CCC3)c3cccc(C#N)c32)cc1 [Example 9(1), 7-Cyano-3-[(cyclobutylamino)methyl]-1-(4-methylbenzyl)-1H-indole-2-carboxylic acid] | 200 nM |
| Cc1ccc(Cn2c(C(=O)NS(C)(=O)=O)c(CNC3CCC3)c3ccccc32)cc1 [Example 19, 3-[(Cyclobutylamino)methyl]-1-(4-methylbenzyl)-N-(methylsulfonyl)-1H-indole-2-carboxamide] | 60 nM |
